pEC50: −log10 of the molar value.

Assay [1] deals with P. falciparum 3D7, Dd2, Dd2Δexo. The assay is described as follows: In vitro evolution of compound-resistant lines (selection). The assay is classed as cell-based, Plasmodium falciparum. The settings on record: for Time Length to Obtain Mutants: in vitro selection; for # of Resistant Strains Generated: resistant cultures out of three independent cultures; for EC50 fold shifts observed: selected parasites vs selection parent. The text has this: While we found an overall lack of pre-existing resistance, analysing the onset of resistance was critical, as compounds resulting in rapid resistance are not ideal for clinical development. We therefore sought to create drug-resistant parasites using a variety of different selection methods. We implemented either a high-dose method or a ramp-up/pulse method for our in vitro selections. Two of the 50 compounds—MMV028895 and MMV665824—were removed from the selection study during experimentation. […] Out of the remaining 48 compounds, resistant parasites were obtained for 23 (Supplementary Data 1). As each selection was performed in triplicate with three independent cultures, we succeeded in generating a total of 66 resistant cultures. Parasites resistant to MMV026596 were not obtained despite 100 days of selection, but the cultures acquired hypersensitivity to mefloquine with a 10-fold reduction in EC50 compared with its parental line, 3D7. For the remaining 24 compounds, acquisition of resistant parasites was unsuccessful despite numerous attempts over an extensive period of time.
Based on the compound speed of action and lab specialty, selections were conducted using a high-pressure intermittent selection method, a step-wise selection method, or a constant selection method. For high-pressure selections, ∼1–2 × 10^9 parasites were treated at a concentration of 3–10 × EC50 until parasites could not be seen by microscopy (4–10 days). Following treatment, compound pressure was removed and cultures were allowed to recover. Once healthy parasites were seen and parasitemia reached ∼2%, compound pressure was reinstated. For step-wise selections, ∼1 × 10^8 parasites were treated at a starting concentration resulting in a reduced growth rate of 50%. Cultures were examined daily by microscopy, increasing compound concentration in increments of 5–10% as needed to maintain a 50% reduced growth rate. Selections were carried out until cultures achieved a reproducible EC50 fold shift of >3 × . Finally, constant selections were conducted in a similar manner to the high-pressure intermittent method with the exception that compound pressure was never removed. Following successful selection, cultures were cloned out using a limiting dilution method as previously described. Selections were terminated after 200 days if resistance could not be obtained.

The next assay relates to PfCRT-Q352R (parent Dd2). The assay is described as follows: Cross-resistance EC50 assay, PfCRT-Q352R. The assay is classed as cell-based. The settings on record: Plasmodium falciparum, DD2, 72 h, read-out: PfCRT:Q352R (Dd2 Parent) Average EC50. The source says: (§1) To evaluate potential overlapping activity against known antimalarial drug targets, we performed dose-response studies with each compound against our assembled set of drug-resistant lines and their corresponding parents, in an asexual blood stage proliferation assay (Table 1). Comparisons were made to the drug-sensitive strain 3D7 when a parent was unavailable (TM90C2A, W2 and Dd2). As laboratories conducted EC50 assays with different strains and protocols, all comparisons were made between assays from the same laboratory and under the same assay conditions. Compounds displaying >5-fold EC50 shifts relative to the parent or sensitive strain were flagged as having potentially non-novel targets. Average fold shifts per strain ranged from 0.82 to 2.34, with a median of 1.23 indicating there was not common resistance to any one resistant clone. No resistance patterns were observed when classifying the compounds based on chemical structure, but this was not surprising given the diversity of compounds chosen. On the other hand, given that these confirmed compounds were derived from larger unconfirmed hit lists to which some filtration criteria may have been applied (for example, elimination of obvious dihydrofolate reductase inhibitors[32]), some[10][11][12][13] pre-existing bias may exist in the set. […]
(§2) Alternatively, a SYBR Green-based proliferation approach was used for the 72-h assay, as previously described. Briefly, a culture of either synchronized or asynchronous parasitized RBCs (0.3% parasitemia and 4% haematocrit) in screening medium (identical to supplemented medium above except no serum was added) was exposed to serial drug dilutions. Plates were incubated at 37 °C and gassed with 93% N2, 4% CO2 and 3% O2 for 72 h. Following incubation, 10 × SYBR Green I (Invitrogen; supplied in 10,000 × concentration) in lysis buffer ([…], 5 mM EDTA, 0.16% Saponin wt per vol and 1.6% Triton X vol per vol) was added to the wells and the plates were incubated overnight at room temperature before plate reading. EC50 assays were repeated three times, taking the average EC50 value from each assay set, and removing any outliers using a single iteration of Grubbs' test, eliminating values with z-scores above the critical z-value (α=0.05). The raw EC50 values for synchronized parasites assayed in a 384-well format are listed in Supplementary Data 4. The raw EC50 values for asynchronous parasites assayed in a 96 or 1536-well format are listed in Supplementary Data 5.
(§3) EC50 values for each strain were compared with those of the corresponding parent strain to determine fold-shift changes and identify resistance. To minimize the cause variance between assays, all comparisons were conducted between strains assayed under identical conditions. A one-way ANOVA followed by a Dunnet's post-test was conducted in GraphPad Prism to identify significant changes between the parent and resistant strain.

The subject of assay [2] is GNF449-R2 (PfATP4 I203L and P990R, parent Dd2). The assay is described as follows: Cross-resistance EC50 assay, GNF449-R2. The assay is classed as cell-based. The settings on record: Plasmodium falciparum, SYBR green 72 hour assay, asynchronized parasites, 96-well or 1536-well format.
Source text: as §1, §2, §3

For `O=C(Nc1ccsc1C(=O)NC1CCCCC1)c1ccc(F)cc1` [MMV665939], in assay [1], the “Time Length to Obtain Mutants” value is “MODERATE (50-125 days)”, the “# of Resistant Strains Generated” value is reported as 3/3 and the “EC50 fold shifts observed” value is given as 4-6x. For the same compound, the pEC50 in the assay with PfCRT-Q352R (parent Dd2) was 5.94. Also, the EC50 in assay [2] was 2.21 µM.

In the case of `Nc1ccc(-c2nc3cc(Cc4ccc5[nH]c(-c6ccc(N)cc6)nc5c4)ccc3[nH]2)cc1` [MMV665943], in assay [1], the “Time Length to Obtain Mutants” value is listed as “SHORT (0-50 days)”, the “# of Resistant Strains Generated” value is recorded as 0/3 and the “EC50 fold shifts observed” value is recorded as “no shift”. For the same compound, the pEC50 in the assay on PfCRT-Q352R (parent Dd2) was 6.39. Also, the EC50 in assay [2] stood at 0.588 µM.

As to `O=C(NC(c1ccccc1)c1ccc2cccnc2c1O)c1ccccc1` (stereo not shown) [MMV666080], in assay [1], the “Time Length to Obtain Mutants” value was “LONG (> 125 days)”, the “# of Resistant Strains Generated” value was 0/3 and the “EC50 fold shifts observed” value is “no shift”. Moreover, the negative logarithm of the EC50 (pEC50) in the assay with PfCRT-Q352R (parent Dd2) was 6.26. Besides, the EC50 in assay [2] was 1.11 µM.

For `COc1cc(C(=O)ON=C(N)Cc2cccc3ccccc23)cc(OC)c1OC` [MMV666687], in assay [1], the “Time Length to Obtain Mutants” value is given as “LONG (> 125 days)”, the “# of Resistant Strains Generated” value is given as 0/3 and the “EC50 fold shifts observed” value is given as “no shift”. The pEC50 with PfCRT-Q352R (parent Dd2) was 6.49. Also, the EC50 in assay [2] was 0.813 µM.

As for `c1cc(-c2cnc3ccc(-c4ccc(N5CCOCC5)cc4)nn23)ccn1` [MMV668311], in assay [1], the “Time Length to Obtain Mutants” value is “LONG (> 125 days)”, the “# of Resistant Strains Generated” value is recorded as 0/3 and the “EC50 fold shifts observed” value is given as “no shift”. The negative-log EC50 (pEC50) in the assay with PfCRT-Q352R (parent Dd2) is 7.20. Besides, the concentration giving a half-maximal response (EC50) in assay [2] amounted to 0.03 µM.

In the case of `c1cncc(-c2cc(N3CCC(CN4CCOCC4)CC3)nc(-c3ccncc3)n2)c1` [MMV668399], in assay [1], the “Time Length to Obtain Mutants” value is reported as “LONG (> 125 days)”, the “# of Resistant Strains Generated” value is recorded as 3/3 and the “EC50 fold shifts observed” value was 2-4x. In the assay on PfCRT-Q352R (parent Dd2), the pEC50 was 7.15. Also, the EC50 in assay [2] came out at 0.938 µM.

Regarding `COc1ccc2c3c([nH]c2c1)[C@H](CO)N(C(C)=O)CC31CCN(C(=O)Nc2ccccc2F)CC1` [MMV673482], in assay [1], the “Time Length to Obtain Mutants” value is “SHORT (0-50 days)”, the “# of Resistant Strains Generated” value is 2/3 and the “EC50 fold shifts observed” value is given as 7-18x. Further, the negative logarithm of the EC50 (pEC50) with PfCRT-Q352R (parent Dd2) is 7.15. Further, in assay [2], the EC50 is 0.007 µM.

Regarding `CN(C)CCCNCc1ccc(-c2ccc(Cl)c(Cl)c2)o1` [MMV673964], in assay [1], the “Time Length to Obtain Mutants” value was “LONG (> 125 days)”, the “# of Resistant Strains Generated” value is listed as 0/3 and the “EC50 fold shifts observed” value is reported as “no shift”. The pEC50 in the assay with PfCRT-Q352R (parent Dd2) is 6.26. In addition, the half-maximal effective concentration (EC50) in assay [2] was 1.05 µM.

In general, pEC50 refers to the EC50 on a negative log10 scale, so that one unit is a factor of ten. In general, EC50 refers to the concentration giving half of the maximal effect.

The values above are taken from PMC4912613, “A broad analysis of resistance development in the malaria parasite” (Nature Communications, 2016).
